Reference: US20230247992A1, “ARTHROPOD CONTROL COMPOSITION” (Firmenich SA, priority 2020, published 2023)

What was measured:
Aedes aegypti [1] = assay: in vitro Warm Body assay, substance applied on glass Petri dish on top of the warm body (deterrence and repellence); type: in vivo
Protocol: (§1) The controlling effect, repellence & spatial repellence, according to the present invention is determined by testing the Warm Body assay against the yellow fever mosquito, Aedes aegypti Rockefeller strain. […] Observations of controlling efficacy were made on host-seeking females of uniform age, 5 to 10 days old selected as mentioned in the publication mentioned hereinabove. Tested hungry females had access to 10% sugar solution but were not blood-fed. Further information is provided in the accompanying examples.
(§2) The published protocol has been adapted in not manually counting the landing mosquitoes but automatically using an automatic counting software, the switch from Anopheles gambiae to A. aegypti led to a decrease of mosquitoes’ number placed in the tested cage due to the size difference (i.e. 30 mosquitoes instead of 50) and to an increase of lighting as A. aegypti is a diurnal mosquitoes (i.e. 150 lux instead of 4 lux). Further information is provided in the accompanying examples.,
(§3) The controlling effect of the compositions according to the present invention was assessed using an adapted Warm Body assay as defined in Kröber T, Kessler S, Frei J, Bourquin M, Guerin PM. 2010. An in vitro assay for testing mosquito controlling compounds employing a warm body and carbon dioxide as a behavioral activator. J Am Mosq Control Assoc. 26:381-386. In this in-vitro assay the number of mosquito landing on a warm body, simulating an attractive host treated with the tested stimuli, was measured in order to assess the repellence effect.
as §2, with “to Aedes” for “to A.”, “lux).” for “lux). Further information is provided in the accompanying examples.,”
(§4) In addition, since the inventors were interested by assessing spatial repellence added or not to a deterrent effect, the substance was applied using two different technics. Whether, as in Kröber et al. (2010), both deterrent and repellent effect were investigated (i.e. similar effect than most body care applications such as lotion) and the substances was applied on a sandblasted glass Petri dish placed on top of the warm body. Whether only the spatial repellence was investigated (i.e. similar effect than most home care applications such as liquid electric dispenser) and the substance was introduced in the cage space thanks to a forced evaporation system as described in Chappuis C J-F, Niclass Y, Vuilleumier C, Starkenmann C. 2015. Quantitative Headspace Analysis of Selected Odorants from Latrines in Africa and India. Environ. Sci. Technol. 49:6134-6140.
(§5) As stated in Kröber et al. (2010), selected 10-12 days old hungry females, that had ad libitum access to 10% sugar solution but were not blood-fed, were selected for the assay.
On the sandblasted glass Petri dish covering the warm body (28.3 cm^2), 100 µL of the substances diluted at different concentrations in ethanol was applied. The number of mosquito landing on the warm body was counted for each stimuli, N,N-diethyl-3-methylbenzamide (DEET) and ethyl 3-[acetyl(butyl)amino]propanoate (IR3535) being used as benchmarks and pure ethanol as control.

Aedes aegypti [2] = assay: in vitro Warm Body assay, substance introduced in the cage air by forced evaporation (spatial repellence); type: in vivo
Protocol: as §1, §2, §3
as §2, with “to Aedes” for “to A.”, “lux).” for “lux). Further information is provided in the accompanying examples.,”
as §4, §5
The forced evaporation system allows to fill the volume of the cage with stimuli tested, (2-methyl-4-oxo-3-prop-2-ynylcyclopent-2-en-1-yl) 2,2-dimethyl-3-(2-methylprop-1-enyl)cyclopropane-1-carboxylate (prallethrin) and N,N-diethyl-3-methylbenzamide (DEET) being used as benchmarks. In order to limit potential dead volumes in the cage, five flushes of the cage were made before starting the 2 minutes test during which the number of mosquito landings was counted.

[3] = 0.04% in ethanol, ethanol control 67.0±8.8 landings
[4] = 1% in ethanol, ethanol control 67.0±8.8 landings
[5] = […] in ethanol, ethanol control 67.0±8.8 landings
[6] = 0.0017 µg/L air, without substance 54.1±4.9
[7] = 0.017 µg/L air, without substance 54.1±4.9
[8] = 0.17 µg/L air, without substance 54.1±4.9
[9] = 1.7 µg/L air, without substance 54.1±4.9
[10] = 17 µg/L air, without substance 54.1±4.9
[11] = 0.04% in ethanol, ethanol control 67.1±9.1 landings
[12] = 1% in ethanol, ethanol control 67.1±9.1 landings
[13] = […] in ethanol, ethanol control 67.1±9.1 landings
[14] = 0.0017 µg/L air, without substance 56.0±3.6
[15] = 0.017 µg/L air, without substance 56.0±3.6
[16] = 0.17 µg/L air, without substance 56.0±3.6
[17] = 1.7 µg/L air, without substance 56.0±3.6
[18] = 17 µg/L air, without substance 56.0±3.6
[19] = 0.0017 µg/L air, without substance 54.7±3.2
[20] = 0.017 µg/L air, without substance 54.7±3.2
[21] = 0.17 µg/L air, without substance 54.7±3.2
[22] = 1.7 µg/L air, without substance 54.7±3.2
[23] = 17 µg/L air, without substance 54.7±3.2

SMILES | number of mosquitoes landing within 2 minutes on the warm body (Aedes aegypti [1]; [3]) | number of mosquitoes landing within 2 minutes on the warm body (Aedes aegypti [1]; [4]) | number of mosquitoes landing within 2 minutes on the warm body (Aedes aegypti [1]; [5]) | number of mosquitoes landing within 2 minutes on the warm body, air in the cage saturated with stimulus (Aedes aegypti [2]; [6]) | number of mosquitoes landing within 2 minutes on the warm body, air in the cage saturated with stimulus (Aedes aegypti [2]; [7]) | number of mosquitoes landing within 2 minutes on the warm body, air in the cage saturated with stimulus (Aedes aegypti [2]; [8]) | number of mosquitoes landing within 2 minutes on the warm body, air in the cage saturated with stimulus (Aedes aegypti [2]; [9]) | number of mosquitoes landing within 2 minutes on the warm body, air in the cage saturated with stimulus (Aedes aegypti [2]; [10]) | number of mosquitoes landing within 2 minutes on the warm body (Aedes aegypti [1]; [11]) | number of mosquitoes landing within 2 minutes on the warm body (Aedes aegypti [1]; [12]) | number of mosquitoes landing within 2 minutes on the warm body (Aedes aegypti [1]; [13]) | number of mosquitoes landing within 2 minutes on the warm body, air in the cage saturated with stimulus (Aedes aegypti [2]; [14]) | number of mosquitoes landing within 2 minutes on the warm body, air in the cage saturated with stimulus (Aedes aegypti [2]; [15]) | number of mosquitoes landing within 2 minutes on the warm body, air in the cage saturated with stimulus (Aedes aegypti [2]; [16]) | number of mosquitoes landing within 2 minutes on the warm body, air in the cage saturated with stimulus (Aedes aegypti [2]; [17]) | number of mosquitoes landing within 2 minutes on the warm body, air in the cage saturated with stimulus (Aedes aegypti [2]; [18]) | also measured
OCCc1ccccc1 [2-phenylethanol] | 46.0 | 0.0 | 72.0 | 12.0 | 30.0 | 25.0 | 51.0 | 30.0 | – | – | – | – | – | – | – | – | landing decrease (Aedes aegypti [2]; highest dose tested): 41%
CC(C)C(=O)OCCc1ccccc1 [2-phenylethyl 2-methylpropanoate] | 55.0 | 2.0 | 90.0 | – | – | – | – | – | – | – | – | – | – | – | – | – | –
CC(=O)OC1CC(C)CCC1C(C)C (stereo not drawn) [5-methyl-2-propan-2-ylcyclohexyl] acetate] | – | – | – | – | – | – | – | – | 16.0 | 10.0 | 22.0 | 31.5 | 24.0 | 17.5 | 9.0 | 25.0 | –
CCCCCCC1CCCC(=O)O1 (stereo not drawn) [6-hexyloxan-2-one] | – | – | – | – | – | – | – | – | 13.0 | 5.0 | 74.0 | 31.0 | 28.0 | 4.0 | – | 5.0 | landings in 2 minutes (Aedes aegypti [2]; dose of 0.17 µg/L of air): less than five
CC1=CC[C@@H]2[C@H](C1)C2(C)C [(1S,6R)-3,7,7-trimethylbicyclo[4.1.0]hept-3-ene] | 55.0 | 8.0 | 59.0 | – | – | – | – | – | – | – | – | – | – | – | – | – | –
COc1ccc(COC(C)=O)cc1 [(4-methoxyphenyl)methyl acetate] | 27.0 | 9.0 | 59.0 | 18.0 | 26.5 | 34.5 | 28.0 | – | – | – | – | – | – | – | – | – | –
COC(C)(C)[C@H]1CC=C(C)CC1 [(4R)-4-(2-methoxypropan-2-yl)-1-methylcyclohexene] | 18.0 | 3.0 | 52.0 | – | – | – | – | – | – | – | – | – | – | – | – | – | landings per minute (Aedes aegypti [1]; concentration of 0.04%): ~ 10 landings per minute
CCN(CC)C(=O)c1cccc(C)c1 [N,N-diethyl-3-methylbenzamide, reference compound] | 5.1 | 2.6 | 44.9 | 35.0 | 28.0 | 24.0 | 1.5 | 3.0 | 5.1 | 2.6 | 44.9 | 35.0 | 28.0 | 24.0 | 1.5 | 3.0 | number of mosquitoes landing within 2 minutes on the warm body (Aedes aegypti [1]; 0.04% in ethanol, ethanol control 59.3±6.9 landings): 5.1; number of mosquitoes landing within 2 minutes on the warm body (Aedes aegypti [1]; 1% in ethanol, ethanol control 59.3±6.9 landings): 2.6; number of mosquitoes landing within 2 minutes on the warm body (Aedes aegypti [1]; […] in ethanol, ethanol control 59.3±6.9 landings): 44.9; number of mosquitoes landing within 2 minutes on the warm body, air in the cage saturated with stimulus (Aedes aegypti [2]; [19]): 35.0; number of mosquitoes landing within 2 minutes on the warm body, air in the cage saturated with stimulus (Aedes aegypti [2]; [20]): 28.0; number of mosquitoes landing within 2 minutes on the warm body, air in the cage saturated with stimulus (Aedes aegypti [2]; [21]): 24.0; number of mosquitoes landing within 2 minutes on the warm body, air in the cage saturated with stimulus (Aedes aegypti [2]; [22]): 1.5; number of mosquitoes landing within 2 minutes on the warm body, air in the cage saturated with stimulus (Aedes aegypti [2]; [23]): 3.0
CCC=CCC1C(=O)CCC1CC(=O)OC (stereo not drawn) [methyl 2-(3-oxo-2-pent-2-enylcyclopentyl)acetate] | 2.0 | 1.0 | 54.0 | – | 10.0 | 4.0 | 15.0 | – | – | – | – | – | – | – | – | – | –
C#CCC1=C(C)C(OC(=O)C2C(C=C(C)C)C2(C)C)CC1=O (stereo not drawn) [prallethrin, (2-methyl-4-oxo-3-prop-2-ynylcyclopent-2-en-1-yl) 2,2-dimethyl-3-(2-methylprop-1-enyl)cyclopropane-1-carboxylate, reference compound] | – | – | – | 77.0 | 66.0 | 15.5 | 3.0 | 1.0 | – | – | – | 77.0 | 66.0 | 15.5 | 3.0 | 1.0 | number of mosquitoes landing within 2 minutes on the warm body, air in the cage saturated with stimulus (Aedes aegypti [2]; [19]): 77.0; number of mosquitoes landing within 2 minutes on the warm body, air in the cage saturated with stimulus (Aedes aegypti [2]; [20]): 66.0; number of mosquitoes landing within 2 minutes on the warm body, air in the cage saturated with stimulus (Aedes aegypti [2]; [21]): 15.5; number of mosquitoes landing within 2 minutes on the warm body, air in the cage saturated with stimulus (Aedes aegypti [2]; [22]): 3.0; number of mosquitoes landing within 2 minutes on the warm body, air in the cage saturated with stimulus (Aedes aegypti [2]; [23]): 1.0
